Assays:
[1] = target: 5-hydroxytryptamine receptor 2B (Homo sapiens, UniProt P41595); assay type: functional, cell-based
[2] = target: T1, 5-hydroxytryptamine receptor 1A (Homo sapiens, UniProt P08908); assay type: functional, cell-based
T1 sequence (P08908 whole entry): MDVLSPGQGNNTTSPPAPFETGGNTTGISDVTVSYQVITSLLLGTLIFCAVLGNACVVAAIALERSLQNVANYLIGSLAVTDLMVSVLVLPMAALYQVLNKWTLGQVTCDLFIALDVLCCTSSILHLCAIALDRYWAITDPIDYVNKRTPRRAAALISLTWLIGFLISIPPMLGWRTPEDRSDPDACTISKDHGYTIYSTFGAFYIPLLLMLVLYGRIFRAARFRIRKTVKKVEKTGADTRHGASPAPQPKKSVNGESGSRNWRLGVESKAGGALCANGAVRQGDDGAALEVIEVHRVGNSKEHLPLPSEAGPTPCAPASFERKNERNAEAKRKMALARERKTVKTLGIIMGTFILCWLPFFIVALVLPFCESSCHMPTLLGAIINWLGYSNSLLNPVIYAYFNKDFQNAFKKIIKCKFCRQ

[3] = target: T2, Gastrin/cholecystokinin type B receptor (Homo sapiens, UniProt P32239)
T2 sequence (P32239 whole entry): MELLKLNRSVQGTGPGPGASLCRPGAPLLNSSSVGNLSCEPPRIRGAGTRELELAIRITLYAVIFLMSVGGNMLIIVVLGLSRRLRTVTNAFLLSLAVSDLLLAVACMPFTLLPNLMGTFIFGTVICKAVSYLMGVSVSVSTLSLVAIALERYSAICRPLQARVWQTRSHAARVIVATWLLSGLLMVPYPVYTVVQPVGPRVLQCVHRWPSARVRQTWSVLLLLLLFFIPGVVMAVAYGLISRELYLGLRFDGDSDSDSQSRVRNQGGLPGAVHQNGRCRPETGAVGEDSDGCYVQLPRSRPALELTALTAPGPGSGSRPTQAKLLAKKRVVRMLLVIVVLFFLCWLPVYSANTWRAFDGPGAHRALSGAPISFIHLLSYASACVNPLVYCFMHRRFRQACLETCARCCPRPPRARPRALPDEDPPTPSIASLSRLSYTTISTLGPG

[4] = target: T3, Alpha-1A adrenergic receptor (Homo sapiens, UniProt P35348); assay type: functional, cell-based
T3 sequence (P35348 whole entry): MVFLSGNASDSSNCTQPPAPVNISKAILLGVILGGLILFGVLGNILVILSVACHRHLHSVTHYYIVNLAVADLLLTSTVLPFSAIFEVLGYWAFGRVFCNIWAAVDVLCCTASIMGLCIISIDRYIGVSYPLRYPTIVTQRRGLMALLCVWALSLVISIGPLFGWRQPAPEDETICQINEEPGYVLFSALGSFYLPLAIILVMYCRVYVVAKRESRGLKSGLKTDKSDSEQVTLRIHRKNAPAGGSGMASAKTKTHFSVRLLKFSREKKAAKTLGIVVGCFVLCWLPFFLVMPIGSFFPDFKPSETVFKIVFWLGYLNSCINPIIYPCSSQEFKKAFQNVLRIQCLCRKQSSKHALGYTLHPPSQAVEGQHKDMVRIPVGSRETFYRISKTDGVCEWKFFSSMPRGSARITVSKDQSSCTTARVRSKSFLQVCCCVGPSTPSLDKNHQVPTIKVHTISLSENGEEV

Estrogen receptor = target: T4, Estrogen receptor (Homo sapiens, UniProt P03372)
T4 sequence (P03372 whole entry): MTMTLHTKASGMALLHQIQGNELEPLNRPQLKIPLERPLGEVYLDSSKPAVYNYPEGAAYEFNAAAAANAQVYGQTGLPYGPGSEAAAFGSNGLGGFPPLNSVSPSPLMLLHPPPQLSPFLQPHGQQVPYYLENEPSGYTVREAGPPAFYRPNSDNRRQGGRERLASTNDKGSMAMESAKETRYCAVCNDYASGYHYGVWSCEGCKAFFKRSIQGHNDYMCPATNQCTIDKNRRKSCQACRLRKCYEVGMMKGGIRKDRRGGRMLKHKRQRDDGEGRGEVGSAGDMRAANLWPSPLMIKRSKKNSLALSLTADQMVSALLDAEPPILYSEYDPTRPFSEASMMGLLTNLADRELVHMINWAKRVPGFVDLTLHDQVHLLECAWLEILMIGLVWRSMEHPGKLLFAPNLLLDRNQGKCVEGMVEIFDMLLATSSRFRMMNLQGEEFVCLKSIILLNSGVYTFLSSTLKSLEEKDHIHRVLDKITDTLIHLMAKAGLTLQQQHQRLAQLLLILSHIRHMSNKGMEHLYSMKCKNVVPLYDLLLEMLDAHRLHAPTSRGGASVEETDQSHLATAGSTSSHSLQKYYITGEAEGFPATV

Histamine H1 receptor = Histamine H1 receptor (Homo sapiens, UniProt P35367)
Histamine H1 receptor, sequence (P35367 whole entry): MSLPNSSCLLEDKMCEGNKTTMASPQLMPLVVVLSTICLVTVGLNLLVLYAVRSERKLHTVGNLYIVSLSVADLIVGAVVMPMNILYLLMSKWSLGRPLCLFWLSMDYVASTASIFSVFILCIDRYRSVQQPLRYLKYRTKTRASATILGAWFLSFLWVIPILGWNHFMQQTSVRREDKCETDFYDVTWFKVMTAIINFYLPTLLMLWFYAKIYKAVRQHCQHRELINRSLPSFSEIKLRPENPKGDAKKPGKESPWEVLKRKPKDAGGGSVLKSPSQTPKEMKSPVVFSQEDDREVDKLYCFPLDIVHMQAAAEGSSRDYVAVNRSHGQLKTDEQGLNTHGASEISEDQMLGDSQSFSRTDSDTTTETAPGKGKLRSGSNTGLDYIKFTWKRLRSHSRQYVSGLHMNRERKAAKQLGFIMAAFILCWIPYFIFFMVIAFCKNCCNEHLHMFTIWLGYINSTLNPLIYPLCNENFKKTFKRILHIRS

[5] = target: 3',5'-cyclic-AMP phosphodiesterase 4A (Homo sapiens, UniProt P27815); assay type: functional
3',5'-cyclic-AMP phosphodiesterase 4A, sequence (P27815 whole entry): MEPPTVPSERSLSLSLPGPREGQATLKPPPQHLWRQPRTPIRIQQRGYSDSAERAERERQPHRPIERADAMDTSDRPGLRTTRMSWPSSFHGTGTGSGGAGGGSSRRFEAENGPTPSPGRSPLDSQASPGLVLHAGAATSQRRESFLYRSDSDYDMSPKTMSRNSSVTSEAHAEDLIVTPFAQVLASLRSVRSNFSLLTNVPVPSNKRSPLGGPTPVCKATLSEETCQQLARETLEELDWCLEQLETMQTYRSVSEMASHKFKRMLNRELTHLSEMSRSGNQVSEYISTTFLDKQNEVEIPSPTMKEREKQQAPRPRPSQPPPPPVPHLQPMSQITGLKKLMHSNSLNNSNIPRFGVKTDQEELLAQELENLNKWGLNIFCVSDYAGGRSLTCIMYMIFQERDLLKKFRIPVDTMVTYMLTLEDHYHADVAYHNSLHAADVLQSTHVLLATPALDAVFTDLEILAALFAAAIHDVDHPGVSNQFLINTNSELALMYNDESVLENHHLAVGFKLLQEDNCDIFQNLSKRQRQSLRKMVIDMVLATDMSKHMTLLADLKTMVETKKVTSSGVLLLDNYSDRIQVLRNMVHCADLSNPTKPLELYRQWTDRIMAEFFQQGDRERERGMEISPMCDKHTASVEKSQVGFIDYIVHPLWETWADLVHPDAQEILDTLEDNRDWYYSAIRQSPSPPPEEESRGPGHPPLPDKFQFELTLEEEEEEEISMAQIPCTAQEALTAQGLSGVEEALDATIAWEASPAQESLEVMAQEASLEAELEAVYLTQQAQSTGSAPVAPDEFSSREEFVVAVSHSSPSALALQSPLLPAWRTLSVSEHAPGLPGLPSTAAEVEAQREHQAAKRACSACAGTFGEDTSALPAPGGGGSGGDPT

Thromboxane A2 receptor = target: T5, Thromboxane A2 receptor (Homo sapiens, UniProt P21731); assay type: functional, cell-based
T5 sequence (P21731 whole entry): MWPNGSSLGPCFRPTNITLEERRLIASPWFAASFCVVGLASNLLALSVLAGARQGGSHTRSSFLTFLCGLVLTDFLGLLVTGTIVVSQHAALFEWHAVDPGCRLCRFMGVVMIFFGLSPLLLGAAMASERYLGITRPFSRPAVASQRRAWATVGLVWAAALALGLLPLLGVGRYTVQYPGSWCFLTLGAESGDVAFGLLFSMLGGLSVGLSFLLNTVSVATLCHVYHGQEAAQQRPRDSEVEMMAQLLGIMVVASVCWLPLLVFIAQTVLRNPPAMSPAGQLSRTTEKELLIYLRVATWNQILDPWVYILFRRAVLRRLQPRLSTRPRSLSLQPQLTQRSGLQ

[6] = target: Sodium-dependent noradrenaline transporter (Homo sapiens, UniProt P23975)
Sodium-dependent noradrenaline transporter, sequence (P23975 whole entry): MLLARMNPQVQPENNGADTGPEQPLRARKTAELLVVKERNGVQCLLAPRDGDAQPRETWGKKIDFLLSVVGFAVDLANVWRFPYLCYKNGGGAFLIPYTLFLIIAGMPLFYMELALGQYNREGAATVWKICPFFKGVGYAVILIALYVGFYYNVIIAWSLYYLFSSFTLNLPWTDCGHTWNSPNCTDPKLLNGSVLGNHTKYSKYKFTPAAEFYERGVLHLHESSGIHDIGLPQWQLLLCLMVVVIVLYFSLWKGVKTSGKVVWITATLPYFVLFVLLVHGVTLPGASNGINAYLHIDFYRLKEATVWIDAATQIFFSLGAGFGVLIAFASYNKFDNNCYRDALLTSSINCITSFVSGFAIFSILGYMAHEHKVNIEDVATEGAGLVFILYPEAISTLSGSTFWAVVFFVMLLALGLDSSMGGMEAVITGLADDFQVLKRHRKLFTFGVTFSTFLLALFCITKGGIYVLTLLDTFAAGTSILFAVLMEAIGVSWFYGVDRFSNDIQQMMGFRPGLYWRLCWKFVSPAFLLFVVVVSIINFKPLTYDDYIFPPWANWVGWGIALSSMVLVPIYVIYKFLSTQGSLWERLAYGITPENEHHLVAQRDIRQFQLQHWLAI
Further: assay procedure not described here.

5-hydroxytryptamine receptor 2B, sequence (P41595 whole entry): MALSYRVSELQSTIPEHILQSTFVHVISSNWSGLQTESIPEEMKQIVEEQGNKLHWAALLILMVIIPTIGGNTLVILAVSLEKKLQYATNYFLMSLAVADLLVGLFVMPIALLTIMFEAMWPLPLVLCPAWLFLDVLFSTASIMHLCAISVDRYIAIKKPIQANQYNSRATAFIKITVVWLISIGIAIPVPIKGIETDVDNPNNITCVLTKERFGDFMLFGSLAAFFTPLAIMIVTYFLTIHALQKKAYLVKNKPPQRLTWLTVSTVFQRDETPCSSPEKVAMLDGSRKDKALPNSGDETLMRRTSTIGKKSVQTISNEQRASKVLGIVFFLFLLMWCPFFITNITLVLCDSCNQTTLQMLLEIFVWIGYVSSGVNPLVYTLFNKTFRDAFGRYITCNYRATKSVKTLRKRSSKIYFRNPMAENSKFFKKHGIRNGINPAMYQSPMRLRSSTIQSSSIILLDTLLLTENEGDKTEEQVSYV

OC1(c2ccc(Cl)cc2)c2ccccc2C2=NCCN21 (stereo unspecified) [MAZINDOL]
AC50 [1]: > 30 µM
AC50 [2]: > 30 µM
AC50 [3]: > 30 µM
AC50 [4]: > 30 µM
AC50 (Estrogen receptor): > 30 µM
AC50 (Histamine H1 receptor): 7.5 µM

CC(C(=O)O)c1ccc(-c2ccccc2)c(F)c1 (stereo unspecified) [FLURBIPROFEN]
AC50 [1]: > 10 µM
AC50 [2]: > 10 µM
AC50 [5]: > 30 µM
AC50 (Thromboxane A2 receptor): > 30 µM
AC50 [6]: > 30 µM
AC50 (Estrogen receptor): > 30 µM

COCC1=C(C(=O)O)N2C(=O)[C@@H](NC(=O)/C(=N\OC)c3csc(N)n3)[C@H]2SC1 [CEFPODOXIME]
AC50 [1]: > 30 µM
AC50 [2]: > 30 µM
AC50 [3]: > 30 µM
AC50 [4]: > 30 µM
AC50 (Estrogen receptor): > 30 µM
AC50 (Histamine H1 receptor): > 30 µM

CC(=O)N[C@@H](CS)C(=O)O [ACETYLCYSTEINE]
AC50 [1]: > 30 µM
AC50 [2]: > 30 µM
AC50 [3]: > 30 µM
AC50 [4]: > 30 µM
AC50 (Estrogen receptor): > 30 µM
AC50 (Histamine H1 receptor): > 30 µM

C/N=C(\NC)NCc1ccccc1 [BETHANIDINE]
AC50 [1]: > 30 µM
AC50 [2]: > 30 µM
AC50 [3]: > 30 µM
AC50 [4]: > 30 µM
AC50 (Estrogen receptor): > 30 µM
AC50 (Histamine H1 receptor): > 30 µM

C#C[C@]1(OC(C)=O)CC[C@H]2[C@@H]3CCC4=C/C(=N/O)CC[C@@H]4[C@H]3CC[C@@]21CC [NORGESTIMATE]
AC50 [1]: > 30 µM
AC50 [2]: > 30 µM
AC50 [3]: > 30 µM
AC50 [4]: > 30 µM
AC50 (Estrogen receptor): > 30 µM
AC50 (Histamine H1 receptor): > 30 µM

CC12CC3CC(C)(C1)CC(N)(C3)C2 [MEMANTINE]
AC50 [1]: > 10 µM
AC50 [2]: > 10 µM
AC50 [3]: > 30 µM
AC50 [4]: > 30 µM
AC50 (Estrogen receptor): 1.6 µM
AC50 (Histamine H1 receptor): > 10 µM

Clc1ccc(C(Cn2ccnc2)OCc2ccsc2Cl)c(Cl)c1 (stereo unspecified) [TIOCONAZOLE]
AC50 [1]: > 30 µM
AC50 [2]: > 30 µM
AC50 [3]: > 30 µM
AC50 [4]: > 30 µM
AC50 (Estrogen receptor): > 10 µM
AC50 (Histamine H1 receptor): > 30 µM

C[C@]12CCC(=O)C(O)=C1CC[C@@H]1[C@@H]2CC[C@]2(C)C(=O)CC[C@@H]12 [FORMESTANE]
AC50 [1]: > 30 µM
AC50 [2]: > 30 µM
AC50 [3]: > 30 µM
AC50 [4]: > 30 µM
AC50 (Estrogen receptor): > 30 µM
AC50 (Histamine H1 receptor): > 30 µM

Cc1cnc(C(=O)NCCc2ccc(S(=O)(=O)NC(=O)NC3CCCCC3)cc2)cn1 [GLIPIZIDE]
AC50 [2]: > 10 µM
AC50 [3]: > 30 µM
AC50 [5]: > 30 µM
AC50 (Thromboxane A2 receptor): > 30 µM
AC50 (Estrogen receptor): > 30 µM

CN1CCN(C2=Nc3ccccc3Oc3ccc(Cl)cc32)CC1 [LOXAPINE]
AC50 [2]: > 10 µM
AC50 [3]: > 30 µM
AC50 [4]: > 30 µM
AC50 [5]: > 30 µM
AC50 (Thromboxane A2 receptor): > 30 µM
AC50 [6]: 0.482 µM
AC50 (Estrogen receptor): > 30 µM

Reference: ChEMBL document CHEMBL5291721, “A preclinical secondary pharmacology resource illuminates target-adverse drug reaction associations of marketed drugs” (Nat Commun, 2023)
